Laboratory results: patent US8377636B2, “Biological markers predictive of anti-cancer response to kinase inhibitors” (OSI Pharmaceuticals, LLC, priority 2007, dated 2013)

How the values were obtained:
[1] = tested on: H1703 cells; test: Cell proliferation, CellTitreGlo assay; format: cell-based, human
Method: (§1) FIG. 3: Inhibition of PDGFR activity in NSCLC. A. H1703 cells were treated with increasing concentrations of PDGFR inhibitor 1 (OSI-930) (▪), PDGFR inhibitor 2 (▴) or an EGFR inhibitor (erlotinib) (▾). After 72 hours incubation proliferation of the cells was measured by CellTitreGlo assay and plotted as a % proliferation relative to untreated cells. B. H1703 cells were treated with the PDGFR inhibitor OSI-930 for 2 hours and then left untreated or treated with PDGF (10 ng/ml) for 15 mins. Protein extracts were prepared and immunoblots probed with the indicated antibodies C. H1703 and Calu1 cells were treated with either 1 or 5 μM of PDGFR inhibitor OSI-930 and the effect on closure of the wound analysed after 24 hrs.
(§2) FIG. 6: Inhibition of FGFR activity in NSCLC. A. H1703 (▪), Calu1 (▴) and H226 (▾) cells were treated with increasing concentrations of FGFR inhibitor (PD173074). After 72 hours incubation proliferation of the cells was measured by CellTitreGlo assay and plotted as a % proliferation relative to untreated cells.
(§3) The human NSCLC lines H1299, H266, H522, H650, H1437, H1155, Calu1, Hop92, H23, H292, H358, H322, H441, A549, Calu6, H460, H1703 and SW1573 were cultured in the appropriate ATCC recommended supplemented media. Cell extracts were prepared by detergent lysis (50 mM Tris-HCl, pH8, 150 mM NaCl, 1% NP-40, 0.5% NaDeoxycholate, 0.1% SDS) containing protease and phosphatase inhibitors. The soluble protein concentration was determined by micro-BSA assay (Pierce, Rockford Ill.). In experiments monitoring serum stimulation, cells were grown in media with 0.5% FBS for 24 hours followed by addition of FBS to a final concentration of 10% for 10 minutes prior to lysis. In experiments where inhibitor treatment was required, inhibitor was added at the indicated concentration and the cells the stimulated with the indicated ligand. For cell proliferation assays cells were plated, inhibitor added and proliferation measured after 72 hours using the CELLTITERGLO™ cell viability assay (Promega, Madison Wis.).

[2] = tested on: Calu1 cells; test: Cell proliferation, CellTitreGlo assay; format: cell-based, human
Method: as §2, §3

[3] = tested on: H226 cells; test: Cell proliferation, CellTitreGlo assay; format: cell-based, human
Method: as §2, §3

[4] = tested on: ERK MAP kinase and AKT pathways in H1703 cells; test: Intracellular signaling, immunoblot of pERK and pAKT; format: cell-based, human; set-up: AKT pathway inhibition: dose or concentration left out as unconfirmed
Method: as §1
(§4) FIG. 7: Inhibition of FGFR Signaling in H1703 and H226 NSCLC Cells. H1703 and H226 cells were treated with either […] PD173074 for 2 hours and then left untreated (CON) or treated with 10 ng/ml FGF for 15 min (FGF). Cell lysates were prepared and immunoblots using antibodies against pERK, total ERK, pAKT (ser473), total AKT and β-actin were performed.
as §3, with “Wis.). […]” for “Wis.).”

[5] = tested on: ERK MAP kinase and AKT pathways in H226 cells; test: as above; format: cell-based, human
Method: as §4
as §3, with “Wis.). […]” for “Wis.).”

[6] = tested on: ERK MAP kinase and AKT pathways in Calu1 cells; test: as above; format: cell-based, human; details: presence or absence of exogenously added ligand
Method: as §3
Protein immunodetection was performed by electrophoretic transfer of SDS-PAGE separated proteins to nitrocellulose, incubation with antibody and chemiluminescent detection (PicoWest; Pierce, Rockford, Ill.). […]

[7] = tested on: A549 NSCLC cell line; test: Sensitivity of tumor cells to EGFR kinase inhibitor; format: cell-based, human; details: phenotype Mixed
Method: as §3

[8] = tested on: CALU1 NSCLC cell line; test: as above; format: cell-based, human; details: phenotype Mesenchymal-like
Method: as §3

[9] = tested on: CALU6 NSCLC cell line; test: as above; format: cell-based, human; details: phenotype Mesenchymal-like
Method: as §3

[10] = tested on: H1155 NSCLC cell line; test: as above; format: cell-based, human; details: phenotype Mesenchymal-like
Method: as §3

[11] = tested on: H1299 NSCLC cell line; test: as above; format: cell-based, human; details: phenotype Mesenchymal-like
Method: as §3

[12] = tested on: H1437 NSCLC cell line; test: as above; format: cell-based, human; details: phenotype Epithelial
Method: as §3

[13] = tested on: H1703 NSCLC cell line; test: as above; format: cell-based, human; details: phenotype Mesenchymal-like
Method: as §3

[14] = tested on: H226 NSCLC cell line; test: as above; format: cell-based, human; details: phenotype Mesenchymal-like
Method: as §3

[15] = tested on: H23 NSCLC cell line; test: as above; format: cell-based, human; details: phenotype Mesenchymal-like
Method: as §3

[16] = tested on: H292 NSCLC cell line; test: as above; format: cell-based, human; details: phenotype Epithelial
Method: as §3

[17] = tested on: H322 NSCLC cell line; test: as above; format: cell-based, human; details: phenotype Epithelial
Method: as §3

[18] = tested on: H358 NSCLC cell line; test: as above; format: cell-based, human; details: phenotype Epithelial
Method: as §3

[19] = tested on: H441 NSCLC cell line; test: as above; format: cell-based, human; details: phenotype Epithelial
Method: as §3

[20] = tested on: H460 NSCLC cell line; test: as above; format: cell-based, human; details: phenotype Mesenchymal-like
Method: as §3

[21] = tested on: H522 NSCLC cell line; test: as above; format: cell-based, human; details: phenotype Mesenchymal-like
Method: as §3

[22] = tested on: H650 NSCLC cell line; test: as above; format: cell-based, human; details: phenotype Mesenchymal-like
Method: as §3

[23] = tested on: HOP92 NSCLC cell line; test: as above; format: cell-based, human; details: phenotype Mesenchymal-like
Method: as §3

[24] = tested on: SW1573 NSCLC cell line; test: as above; format: cell-based, human; details: phenotype Mesenchymal-like
Method: as §3

[25] = tested on: Calu6 NSCLC xenograft; test: Xenograft tumor growth inhibition; format: in vivo, CD-1 nu/nu mice; details: Calu6 xenograft in mice; 100 mg/kg once a day for 14 days, oral gavage
Method: (§5) FIG. 9: Sensitivity of NSCLC cell lines to erlotinib In Vivo. Female CD-1 nu/nu mice were implanted with H292 or Calu6 cells and tumor allowed to grow to 200 mm^3. Animals were then either left untreated or treated with 100 mg/kg erlotinib once a day for 14 days. Tumor volume was measured twice weekly.
(§6) Female CD-1 nu/nu mice (Charles River Laboratories, Wilmington, Mass.) were implanted with harvested NSCLC tumor cells in a single subcutaneous site on the flank of the mice in the axillary region. Tumors were allowed to grow to 200±50 mm^3, at which time the animals were sorted into treatment groups of 8 animals per group based on weight (±1 g body weight) and tattooed on the tail for permanent identification. Tumor volumes and body weights were determined twice weekly. The tumor volume was determined by measuring in two directions with vernier calipers and calculated using the formula: Tumor volume=(length×width^2)/2. The data were plotted as the % change in mean values of tumor volume and body weight for each group. The tumor growth inhibition (% TGI) was determined as % TGI=[…]: where Wt is the median tumor volume of the treated group at time x and Wc is the median tumor volume of the control group at time x. TARCEVA® was dosed in a 6% Captisol (CyDex, Inc) in WFI (Water for Injection) solution and all control animals were dosed with an equal volume of the vehicle. […]

[26] = tested on: H292 NSCLC xenograft; test: Xenograft tumor growth inhibition; format: in vivo, CD-1 nu/nu mice; details: H292 xenograft in mice; 100 mg/kg once a day for 14 days, oral gavage
Method: as §5, §6

[27] = tested on: H358 cells; test: Cell proliferation, CellTitreGlo assay; format: cell-based, human
Method: as §3

[28] = tested on: Calu1 cells; test: Cell motility, closure of the wound; format: cell-based, human; details: 1 or 5 μM, 24 hrs
Method: as §1

[29] = tested on: H1703 cells; test: Cell motility, closure of the wound; format: cell-based, human; details: 1 or 5 μM, 24 hrs
Method: as §1

[30] = increasing concentrations, 72 hours
[31] = for 2 hours, basal and FGF (10 ng/ml, 15 min) stimulated
[32] = 0.5% FCS and PDGF (mixed AA, AB and BB forms) added

CCN(CC)CCCCNc1ncc2cc(-c3cc(OC)cc(OC)c3)c(NC(=O)NC(C)(C)C)nc2n1 [PD173074]
Growth inhibition (proliferation) [1, 30]: growth inhibited
Growth inhibition (proliferation) [2, 30]: little effect
Growth inhibition (proliferation) [3, 30]: growth inhibited
Activation of the ERK MAP kinase pathway [4, 31]: inhibited
AKT pathway inhibition ([4]; for 2 hours, basal and FGF stimulated): only inhibited after ligand stimulation
Activation of the ERK MAP kinase pathway [5, 31]: inhibited
Signaling (ERK, AKT) [6]: unaffected

C#Cc1cccc(Nc2ncnc3cc(OCCOC)c(OCCOC)cc23)c1 [Erlotinib, [6,7-bis(2-methoxyethoxy)-4-quinazolin-4-yl]-(3-ethynylphenyl) amine]
Erlotinib Senistivity [7]: Intermediate
Erlotinib Senistivity [8]: Insensitive
Erlotinib Senistivity [9]: Insensitive
Erlotinib Senistivity [10]: Insensitive
Erlotinib Senistivity [11]: Insensitive
Erlotinib Senistivity [12]: Insensitive
Erlotinib Senistivity [13]: Insensitive
Erlotinib Senistivity ([13]; listed as erlotinib): insensitive
Erlotinib Senistivity [14]: Insensitive
Erlotinib Senistivity [15]: Insensitive
Erlotinib Senistivity ([15]; listed as erlotinib): insensitive
Erlotinib Senistivity [16]: Sensitive
Erlotinib Senistivity [17]: Sensitive
Erlotinib Senistivity [18]: Sensitive
Erlotinib Senistivity [19]: Sensitive
Erlotinib Senistivity [20]: Insensitive
Erlotinib Senistivity [21]: Insensitive
Erlotinib Senistivity [22]: Insensitive
Erlotinib Senistivity [23]: Insensitive
Erlotinib Senistivity ([23]; listed as erlotinib): insensitive
Erlotinib Senistivity [24]: Insensitive
Xenograft growth, tumor volume [25]: insensitive to EGFR inhibition
Xenograft growth, tumor volume [26]: sensitive to EGFR inhibition and shows a reduction in tumor volume during the dosing period

O=C(Nc1ccc(OC(F)(F)F)cc1)c1sccc1NCc1ccnc2ccccc12 [OSI-930]
Inhibition of cell growth (proliferation) [1, 32]: inhibited more potently
Inhibition of cell growth (proliferation) ([1]; 10% FCS, 72 hours): Inhibition of cell growth
Inhibition of cell growth (proliferation) [2, 32]: failed to show any enhanced growth inhibition
Inhibition of cell growth (proliferation) ([2]; 10% FCS, 72 hours): not growth inhibited
Inhibition of cell growth (proliferation) [3, 32]: failed to show any enhanced growth inhibition
Inhibition of cell growth (proliferation) ([3]; 10% FCS, 72 hours): not growth inhibited
Inhibition of cell growth (proliferation) [27, 32]: failed to show any enhanced growth inhibition
Inhibition of cell growth (proliferation) ([27]; 10% FCS, 72 hours): only observed in H1703 cells
Phosphorylation of ERK MAP kinase and AKT (serine 473) ([4]; inhibitor 2 hours, basal (10% FCS) and ligand stimulated (PDGF 10 ng/ml, 15 mins)): reduced phosphorylation of ERK MAP kinase and AKT (on serine 473)
Inhibition of ERK and AKT pathways ([5]; basal and PDGF ligand stimulated): only showed ligand induced inhibition of ERK and AKT pathways
Cell motility (closure of the wound) [28]: inhibition of cell motility
Cell motility (closure of the wound) [29]: inhibition of cell motility
